Tests used:
[1] = tested on: RCT-3 cells; assay: EP4 mRNA expression in RCT-3 cells (Northern blot); type: cell-based, rat
Experimental: (§1) RCT-1 and RCT-3 are clonal cell lines immortalized by SV-40 large T antigen from cells released from fetal rat calvair by a cmbination collagenase/hyaluronidase digestion. RCT-1 cells, derived from cells released during the first 10 minutes of digestion (fraction I), are cultured in RPMI 1640 medium (BRL) with 10% fetal bovine serum and 0.4 mg/ml G418 (BRL). These cells differentiate and express osteoblastic features upon retinoic acid treatment. RCT-3 cells, immortalized from osteoblast-enriched fraction […] cells, are cultured in F-12 medium (BRL) with 5% Fetal bovine serum and 0.4 mg/ml G418. TRAB-11 cells are also immortalized by SV40 large T antigen from adult rat tibia and are cultured in RPMI 1640 medium with 10% FBS and 0.4 mg/ml G418. ROS 17/2.8 rat osteosarcoma cells are cultured in F-12 containing 5% FBS. Osteoblast-enriched (fraction III) primary fetal rat calvaria cells are obtained by collagenase/hyaluronidase digestion of calvariae of 19 day-old rat fetuses. See Rodan et al., Growth stimulation of rat calvaria osteoblastic cells by acidic FGF, Endocrinology, 121, 1919-1923 (1987), which is incorporated by reference herein in its entirety. Cells are released during 30-50 minutes digestion (fraction III) and are cultured in F-12 medium containing 5% FBS. […]

[2] = tested on: TRAB-11 cells; assay: Effect on intracellular cAMP in TRAB-11 cells; type: cell-based, rat
Experimental: as §1

[3] = tested on: EP4 expression in bone marrow cells; assay: Localization of EP4 mRNA in bone tissue by in situ hybridization; type: in vivo, rat; settings: rats, single anabolic dose
Experimental: (§2) For mRNA localization experiments, 5-week old Sprague-Dawley rats (Charles River) are euthanized by CO2, their tibiae and calvariae are excised, cleaned of soft tissues and frozen immediately in liquid nitrogen. For EP4 regulation experiments, 6-week old rats are given a single injection of either vehicle (7% ethanol in sterile water) or an anabolic dose of PGE2 (Cayman Chemical, Ann Arbor, Mich.), 3-6 mg/kg in the same vehicle) intraperitoneally. Animals are euthanized at several time points post-injection and their tibiae and calvariae, as well as samples from lung and kidney tissues are frozen in liquid nitrogen.
Frozen tibiae are sectioned coronally at […] thickness and sections are mounted on charged slides (Probe On Plus, Fisher Scientific, Springfield, N.J.) and are kept at −70° C. until hybridization. cRNA probes are labeled with ^35S-UPgS (ICN, Costa Mesa, Calif.) using a Riboprobe II kit (Promega Madison, Wis.). Hybridization is performed overnight at 50° C. See M. Weinreb et al., Different pattern of alkaline phosphatase, osteopontin and osteocalcin expression in developing rat bone visualized by in-situ hybridization, J. Bone Miner Res., 5, 831-842 (1990) and D. Shinar et al., Expression of alphav and beta3 integrin subunits in rat osteoclasts in situ, J. Bone Miner. Res., 8, 403-414 (1993), which are both incorporated by reference herein in their entirety. […]

[4] = tested on: EP4 mRNA in bone tissue; assay: EP4 and EP2 mRNA levels in bone tissue of injected rats (Northern blot); type: in vivo, rat; settings: injected 3-6 mg/Kg
Experimental: as §2
Total RNA is extracted from the tibial metaphysis or diaphysis and calvaria using a guanidinium isothiocyanate-phenol-chloroform method after pulverizing frozen bone samples by a tissue homogenizer. See P. Chomczynski et al., Single-step method of RNA isolation by acid guanidium thiocyanate-phenol-chloroform extraction., Analyt Biochem, 162, 156-159 (1987), which is incorporated by reference herein in its entirety. RNA samples ([…]) are separated on 0.9% agarose/formaldehyde gels and transferred onto nylon membranes (Boehringer Mannheim, Germany). […]

[5] = tested on: RCT-3 cells; assay: Effect on intracellular cAMP in RCT-3 cells; type: cell-based, rat
Experimental: as §1

[6] = tested on: RP-1 periosteal cells; assay: EP4 and EP2 mRNA expression in RP-1 periosteal cells (Northern blot); type: cell-based, rat; settings: RP-1 cells
Experimental: RP-1 periosteal cells are spontaneously immortalized from primary cultures of periosteal cells from tibae of 4-week old Sprague-Dawley rats and are cultured in DMEM (BRL, Gaithersburg, Md.) with 10% fetal bovine serum (JRH Biosciences, Lenexa, Kans.).
Total RNA is extracted from the tibial metaphysis or diaphysis and calvaria using a guanidinium isothiocyanate-phenol-chloroform method after pulverizing frozen bone samples by a tissue homogenizer. See P. Chomczynski et al., Single-step method of RNA isolation by acid guanidium thiocyanate-phenol-chloroform extraction., Analyt Biochem, 162, 156-159 (1987), which is incorporated by reference herein in its entirety. RNA samples ([…]) are separated on 0.9% agarose/formaldehyde gels and transferred onto nylon membranes (Boehringer Mannheim, Germany). Membranes are prehybridized in Hybrisol I (Oncor, Gaithersburg, Md.) and 0.5 mg/ml sonicated salmon sperm DNA (Boehringer) at 42° C. for 3 hours and are hybridized at 420C with rat EP2 and mouse EP4 cDNA probes labeled with [^32P]-dCTP (Amersham, Buckinghamshire, UK) by random priming using the rediprime kit (Amersham). After hybridization, membranes are washed 4 times in 2×SSC+0.1% SDS at room temperature for a total of 1 hour and once with 0.2×SSC+0.1% SDS at 550C for 1 hour and then exposed to Kodak XAR 2 film at −70° C. using intensifying screens. […]

[7] = tested on: ROS 17/2.8 rat osteosarcoma cells; assay: Effect on intracellular cAMP in ROS 17/2.8 cells; type: cell-based
Experimental: as §1

SMILES: CCCCC[C@H](O)/C=C/[C@H]1[C@H](O)CC(=O)[C@@H]1C/C=C\CCCC(=O)O [PGE2]
- EP4 mRNA levels [1]: no effect
- effect on intracellular cAMP [2]: markedly induced
- expression of EP4 in bone marrow cells [3]: increased
- EP4 mRNA levels in the tibial diaphysis ([4]; five-week-old male rats): rapidly increased
- EP2 mRNA in bone tissue ([4]; rats): does not induce
- effect on intracellular cAMP [5]: markedly induced
- EP4 mRNA levels ([6]; 10^−6 M): rapidly increases
- EP2 mRNA expression ([6]; before or after treatment): not expressed
- effect on intracellular cAMP [7]: no effect

— US20040204590A1, “Ep4 receptor agonist, compositions and methods thereof” (priority 2001, published 2004)
